{"source": "paper PMC6982127", "about": "“GTP Binding Is Necessary for the Activation of a Toxic Mutant Isoform of the Essential GTPase ObgE” (International Journal of Molecular Sciences, 2019)", "assay_in_all_cases": "isothermal titration calorimetry", "format_in_all_cases": "binding", "key": {"ObgE [1]": {"molecular_target": "T1, ObgE (Escherichia coli, UniProt P42641, DEL153-156)", "T1 construct": "full-length ObgE, N-terminal His6 tag (pET28a-obgE), expressed in E. coli BL21(DE3) pLysS, Ni-NTA and size exclusion, made nucleotide-free by alkaline phosphatase", "T1 sequence (P42641 with tags, fused parts or gaps DEL153-156)": "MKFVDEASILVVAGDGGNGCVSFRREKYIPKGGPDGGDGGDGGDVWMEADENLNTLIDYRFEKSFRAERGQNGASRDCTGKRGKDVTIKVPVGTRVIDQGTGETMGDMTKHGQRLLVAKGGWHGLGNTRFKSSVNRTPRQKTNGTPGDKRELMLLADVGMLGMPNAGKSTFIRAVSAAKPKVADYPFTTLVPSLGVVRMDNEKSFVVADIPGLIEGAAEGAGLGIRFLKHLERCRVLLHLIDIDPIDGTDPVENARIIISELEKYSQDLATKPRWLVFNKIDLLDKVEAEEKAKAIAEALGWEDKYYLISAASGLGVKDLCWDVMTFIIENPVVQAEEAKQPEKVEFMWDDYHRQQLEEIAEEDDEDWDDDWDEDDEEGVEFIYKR", "text": "(§1) isothermal titration calorimetry on ObgE"}, "ObgE [2]": {"molecular_target": "T2, ObgE (Escherichia coli, UniProt P42641, E265K)", "T2 construct": "full-length ObgE, N-terminal His6 tag (pET28a-obgE), expressed in E. coli BL21(DE3) pLysS, Ni-NTA and size exclusion, made nucleotide-free by alkaline phosphatase", "T2 sequence (P42641 whole entry E265K)": "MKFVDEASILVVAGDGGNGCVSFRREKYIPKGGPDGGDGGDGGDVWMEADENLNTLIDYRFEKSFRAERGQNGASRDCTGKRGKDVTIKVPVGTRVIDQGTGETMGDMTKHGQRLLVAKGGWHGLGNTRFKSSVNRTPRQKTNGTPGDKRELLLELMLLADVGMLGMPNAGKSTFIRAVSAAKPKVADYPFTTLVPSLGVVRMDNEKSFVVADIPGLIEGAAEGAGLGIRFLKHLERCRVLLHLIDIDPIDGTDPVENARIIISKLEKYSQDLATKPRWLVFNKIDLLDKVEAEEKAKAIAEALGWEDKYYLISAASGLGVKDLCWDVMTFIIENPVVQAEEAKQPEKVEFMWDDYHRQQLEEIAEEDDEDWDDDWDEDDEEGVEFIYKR", "text": "as §1"}, "ObgE [3]": {"molecular_target": "T3, ObgE (Escherichia coli, UniProt P42641, H234R)", "T3 construct": "full-length ObgE, N-terminal His6 tag (pET28a-obgE), expressed in E. coli BL21(DE3) pLysS, Ni-NTA and size exclusion, made nucleotide-free by alkaline phosphatase", "T3 sequence (P42641 whole entry H234R)": "as the sequence (P42641 whole entry E265K) above, with H234R, K265E counted along it", "text": "as §1"}, "ObgE [4]": {"molecular_target": "T4, ObgE (Escherichia coli, UniProt P42641, T174I)", "T4 construct": "full-length ObgE, N-terminal His6 tag (pET28a-obgE), expressed in E. coli BL21(DE3) pLysS, Ni-NTA and size exclusion, made nucleotide-free by alkaline phosphatase", "T4 sequence (P42641 whole entry T174I)": "as the sequence (P42641 whole entry E265K) above, with T174I, K265E counted along it", "text": "as §1"}, "[5]": {"conditions": "read-out: Equilibrium Dissociation Constants / KD(GDP)"}, "[6]": {"conditions": "read-out: Equilibrium Dissociation Constants / KD(GTPγS)"}, "[7]": {"conditions": "read-out: Equilibrium Dissociation Constants / KD(ppGpp)"}}, "note": "Like-named read-outs stand apart in the source and are kept apart here.", "data": [{"smiles": "Nc1nc2c(ncn2[C@@H]2O[C@H](COP(=O)(O)OP(=O)(O)O)[C@@H](O)[C@H]2O)c(=O)[nH]1", "note": "[GDP]", "values": [{"measurement": "Kd", "setting": "ObgE [1]; [5]", "value": "0.6 ± 0.05", "unit": "µM"}, {"measurement": "Kd", "setting": "ObgE [2]; [5]", "value": "0.25 ± 0.03", "unit": "µM"}, {"measurement": "Kd", "setting": "ObgE [3]; [5]", "value": "0.43 ± 0.05", "unit": "µM"}, {"measurement": "Kd", "setting": "ObgE [4]; [5]", "value": "115 ± 2", "unit": "µM"}]}, {"smiles": "Nc1nc2c(ncn2[C@@H]2O[C@H](COP(=O)(O)OP(=O)(O)OP(O)(O)=S)[C@@H](O)[C@H]2O)c(=O)[nH]1", "note": "[GTPγS]", "values": [{"measurement": "Kd", "setting": "ObgE [1]; [6]", "value": "3.4 ± 0.5", "unit": "µM"}, {"measurement": "Kd", "setting": "ObgE [2]; [6]", "value": "5.7 ± 0.8", "unit": "µM"}, {"measurement": "Kd", "setting": "ObgE [3]; [6]", "value": "3.7 ± 0.5", "unit": "µM"}, {"measurement": "Kd", "setting": "ObgE [4]; [6]", "value": "160 ± 11", "unit": "µM"}]}, {"smiles": "Nc1nc2c(ncn2[C@@H]2O[C@H](COP(=O)(O)OP(=O)(O)O)[C@@H](OP(=O)(O)OP(=O)(O)O)[C@H]2O)c(=O)[nH]1", "note": "[ppGpp]", "values": [{"measurement": "Kd", "setting": "ObgE [1]; [7]", "value": "0.64 ± 0.06", "unit": "µM"}, {"measurement": "Kd", "setting": "ObgE [2]; [7]", "value": "0.31 ± 0.03", "unit": "µM"}, {"measurement": "Kd", "setting": "ObgE [3]; [7]", "value": "0.6 ± 0.06", "unit": "µM"}, {"measurement": "Kd", "setting": "ObgE [4]; [7]", "value": "81 ± 3", "unit": "µM"}]}]}
